Tests used:
Assay type in all cases: biochemical
[1] = target: p110δ/p85α (Homo sapiens, UniProt O00329); test: Transcreener KINASE Assay, kinase inhibition of p110δ/p85α; conditions: for PI3Kδ IH % @ 1 uM: 1 uM test compound; for IC50: read-out: PI3Kδ IC50
In short: (§1)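 ADP formation read by far-red competitive FP immunoassay (60 min RT detection step) after an 80 min RT kinase reaction; substrate added as a 30 uM PIP2/10 uM ATP solution (not final).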

[2] = target: p110γ (Homo sapiens, UniProt P48736); test: Transcreener KINASE Assay, kinase inhibition of p110γ; conditions: for PI3Kγ IH % @ 1 uM: 1 uM test compound; for IC50: read-out: PI3Kγ IC50
In short: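 Kinase activity is monitored as ADP formation, detected by competitive fluorescence polarization with a far-red tracer. Recombinant isoform complexes react for 80 min at room temperature before a 60 min detection step. IC50 values come from fitted dose-response data.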

[3] = target: p110β/p85α (Homo sapiens, UniProt P42338); test: Transcreener KINASE Assay, kinase inhibition of p110β/p85α; conditions: for PI3Kβ IH % @ 1 uM: 1 uM test compound; for IC50: read-out: PI3Kβ IC50
In short: as §1

Chain of p110β/p85α (P42338 whole entry): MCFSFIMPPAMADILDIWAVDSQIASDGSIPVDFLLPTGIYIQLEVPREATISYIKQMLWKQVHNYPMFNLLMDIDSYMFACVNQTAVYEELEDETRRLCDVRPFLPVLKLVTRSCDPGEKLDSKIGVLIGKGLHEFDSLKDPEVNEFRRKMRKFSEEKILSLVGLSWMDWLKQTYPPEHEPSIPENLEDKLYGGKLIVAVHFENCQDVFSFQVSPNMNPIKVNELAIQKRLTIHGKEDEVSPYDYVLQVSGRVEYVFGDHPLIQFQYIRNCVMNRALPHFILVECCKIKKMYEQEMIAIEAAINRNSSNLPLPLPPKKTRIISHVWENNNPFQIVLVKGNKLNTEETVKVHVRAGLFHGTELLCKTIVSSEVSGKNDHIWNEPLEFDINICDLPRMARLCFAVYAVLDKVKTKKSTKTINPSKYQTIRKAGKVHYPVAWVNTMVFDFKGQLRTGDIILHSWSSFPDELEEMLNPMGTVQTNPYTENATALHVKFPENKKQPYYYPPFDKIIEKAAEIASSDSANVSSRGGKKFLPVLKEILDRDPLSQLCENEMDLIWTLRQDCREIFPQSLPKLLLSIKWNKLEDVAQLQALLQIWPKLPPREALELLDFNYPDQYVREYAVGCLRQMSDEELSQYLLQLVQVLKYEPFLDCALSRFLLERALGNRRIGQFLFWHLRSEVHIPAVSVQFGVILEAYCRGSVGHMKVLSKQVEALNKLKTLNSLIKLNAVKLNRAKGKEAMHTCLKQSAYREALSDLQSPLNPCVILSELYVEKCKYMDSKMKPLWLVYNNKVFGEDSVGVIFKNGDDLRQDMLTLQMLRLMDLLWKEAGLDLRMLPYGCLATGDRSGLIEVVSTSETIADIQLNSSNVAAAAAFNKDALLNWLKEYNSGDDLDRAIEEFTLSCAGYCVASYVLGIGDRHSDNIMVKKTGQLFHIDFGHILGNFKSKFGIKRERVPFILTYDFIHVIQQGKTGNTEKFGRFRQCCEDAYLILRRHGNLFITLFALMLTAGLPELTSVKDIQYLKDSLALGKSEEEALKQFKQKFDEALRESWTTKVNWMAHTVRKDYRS
Chain of p110β/p85α (P27986 2-724 partner): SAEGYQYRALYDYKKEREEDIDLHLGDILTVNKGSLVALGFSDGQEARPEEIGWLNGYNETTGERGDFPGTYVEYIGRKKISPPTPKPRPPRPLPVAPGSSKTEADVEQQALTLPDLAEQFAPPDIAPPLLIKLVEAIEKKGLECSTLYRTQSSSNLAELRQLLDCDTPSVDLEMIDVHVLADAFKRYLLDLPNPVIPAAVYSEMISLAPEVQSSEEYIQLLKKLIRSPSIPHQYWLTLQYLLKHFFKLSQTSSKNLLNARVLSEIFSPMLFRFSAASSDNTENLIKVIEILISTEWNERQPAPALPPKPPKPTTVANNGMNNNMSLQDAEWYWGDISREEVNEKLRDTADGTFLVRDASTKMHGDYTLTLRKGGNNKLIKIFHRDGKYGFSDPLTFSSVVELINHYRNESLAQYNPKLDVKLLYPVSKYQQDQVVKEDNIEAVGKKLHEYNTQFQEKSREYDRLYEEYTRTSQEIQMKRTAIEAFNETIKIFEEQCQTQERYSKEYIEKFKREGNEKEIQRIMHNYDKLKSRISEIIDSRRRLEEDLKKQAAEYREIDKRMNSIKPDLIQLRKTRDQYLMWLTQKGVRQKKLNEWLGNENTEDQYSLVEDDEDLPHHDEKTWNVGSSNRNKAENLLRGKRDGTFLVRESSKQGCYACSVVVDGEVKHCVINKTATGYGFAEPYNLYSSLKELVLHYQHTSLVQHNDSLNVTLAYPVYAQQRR
Chain of p110δ/p85α (O00329 whole entry): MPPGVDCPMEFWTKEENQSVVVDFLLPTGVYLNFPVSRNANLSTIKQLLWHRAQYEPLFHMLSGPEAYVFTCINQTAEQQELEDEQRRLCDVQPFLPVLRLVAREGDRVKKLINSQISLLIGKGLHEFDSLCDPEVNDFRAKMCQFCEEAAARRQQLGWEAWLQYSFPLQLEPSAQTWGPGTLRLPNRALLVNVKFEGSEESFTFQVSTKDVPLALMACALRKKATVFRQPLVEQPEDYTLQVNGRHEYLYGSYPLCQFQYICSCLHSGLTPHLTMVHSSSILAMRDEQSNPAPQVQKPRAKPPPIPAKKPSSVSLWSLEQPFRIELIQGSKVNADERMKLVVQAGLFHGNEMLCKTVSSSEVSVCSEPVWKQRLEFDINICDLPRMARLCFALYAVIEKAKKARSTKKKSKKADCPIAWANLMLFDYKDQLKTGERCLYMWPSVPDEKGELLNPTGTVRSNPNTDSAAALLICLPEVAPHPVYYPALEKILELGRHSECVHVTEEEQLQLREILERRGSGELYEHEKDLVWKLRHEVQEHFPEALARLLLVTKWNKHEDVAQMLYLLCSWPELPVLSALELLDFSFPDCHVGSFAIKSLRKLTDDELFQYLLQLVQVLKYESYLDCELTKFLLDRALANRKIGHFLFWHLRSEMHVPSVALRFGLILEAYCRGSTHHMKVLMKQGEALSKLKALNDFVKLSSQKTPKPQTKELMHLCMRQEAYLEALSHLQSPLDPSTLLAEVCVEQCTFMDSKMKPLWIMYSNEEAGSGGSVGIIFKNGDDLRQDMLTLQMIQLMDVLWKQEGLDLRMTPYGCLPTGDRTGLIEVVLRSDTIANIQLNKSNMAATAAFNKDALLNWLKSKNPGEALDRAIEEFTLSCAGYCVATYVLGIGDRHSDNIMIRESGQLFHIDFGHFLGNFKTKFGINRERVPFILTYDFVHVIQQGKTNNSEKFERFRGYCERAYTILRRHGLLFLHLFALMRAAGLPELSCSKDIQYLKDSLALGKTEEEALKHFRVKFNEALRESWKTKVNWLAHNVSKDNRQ
Chain of p110δ/p85α (P27986 whole entry partner): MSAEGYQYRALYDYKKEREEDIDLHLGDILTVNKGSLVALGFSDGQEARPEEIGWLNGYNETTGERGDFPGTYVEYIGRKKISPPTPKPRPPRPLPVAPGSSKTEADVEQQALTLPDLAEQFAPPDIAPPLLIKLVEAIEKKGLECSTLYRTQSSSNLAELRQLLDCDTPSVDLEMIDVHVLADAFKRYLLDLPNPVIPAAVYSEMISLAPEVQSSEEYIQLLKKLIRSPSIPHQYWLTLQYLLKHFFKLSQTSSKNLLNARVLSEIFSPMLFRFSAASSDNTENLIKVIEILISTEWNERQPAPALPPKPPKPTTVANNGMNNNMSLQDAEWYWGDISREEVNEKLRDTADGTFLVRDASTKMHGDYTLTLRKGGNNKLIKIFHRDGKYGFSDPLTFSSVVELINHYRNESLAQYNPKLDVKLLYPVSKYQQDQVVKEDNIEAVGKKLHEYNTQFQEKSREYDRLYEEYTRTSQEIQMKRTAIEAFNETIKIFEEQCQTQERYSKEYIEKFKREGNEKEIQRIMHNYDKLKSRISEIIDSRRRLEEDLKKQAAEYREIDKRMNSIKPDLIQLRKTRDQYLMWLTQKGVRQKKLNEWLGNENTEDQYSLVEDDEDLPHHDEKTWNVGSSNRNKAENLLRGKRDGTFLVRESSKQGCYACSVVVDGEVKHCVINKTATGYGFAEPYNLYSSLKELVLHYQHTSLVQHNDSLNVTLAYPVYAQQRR
Chain of p110γ (P48736 whole entry, canonical isoform): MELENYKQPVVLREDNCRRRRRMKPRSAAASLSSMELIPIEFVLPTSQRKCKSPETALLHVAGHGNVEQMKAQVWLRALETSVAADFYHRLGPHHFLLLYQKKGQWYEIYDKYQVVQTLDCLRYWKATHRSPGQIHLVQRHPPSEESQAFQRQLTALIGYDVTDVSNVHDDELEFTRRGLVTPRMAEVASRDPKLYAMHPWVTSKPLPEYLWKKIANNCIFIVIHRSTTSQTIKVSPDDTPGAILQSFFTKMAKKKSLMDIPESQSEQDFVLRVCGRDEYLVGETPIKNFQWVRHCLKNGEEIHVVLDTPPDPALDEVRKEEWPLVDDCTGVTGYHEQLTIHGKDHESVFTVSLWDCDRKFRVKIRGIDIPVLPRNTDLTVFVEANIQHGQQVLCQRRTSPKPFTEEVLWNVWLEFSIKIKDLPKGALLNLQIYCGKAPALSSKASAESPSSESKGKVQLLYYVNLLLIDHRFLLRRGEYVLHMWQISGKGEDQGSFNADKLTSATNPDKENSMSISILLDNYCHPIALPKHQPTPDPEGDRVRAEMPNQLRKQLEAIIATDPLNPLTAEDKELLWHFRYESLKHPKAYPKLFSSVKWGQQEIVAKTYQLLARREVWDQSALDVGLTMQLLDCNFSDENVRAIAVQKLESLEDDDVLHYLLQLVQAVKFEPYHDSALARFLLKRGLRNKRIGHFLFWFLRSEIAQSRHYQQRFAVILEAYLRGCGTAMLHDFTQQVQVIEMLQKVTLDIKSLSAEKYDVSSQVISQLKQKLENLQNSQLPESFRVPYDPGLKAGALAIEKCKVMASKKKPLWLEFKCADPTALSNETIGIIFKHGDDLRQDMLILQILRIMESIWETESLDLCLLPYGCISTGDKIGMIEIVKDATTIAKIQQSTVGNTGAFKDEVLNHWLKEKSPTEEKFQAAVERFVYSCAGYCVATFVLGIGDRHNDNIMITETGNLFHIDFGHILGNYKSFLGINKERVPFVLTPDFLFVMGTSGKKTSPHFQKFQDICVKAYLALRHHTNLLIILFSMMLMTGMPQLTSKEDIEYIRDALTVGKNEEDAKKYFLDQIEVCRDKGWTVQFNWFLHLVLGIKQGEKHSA

SMILES	PI3Kδ IH % @ 1 uM [1]	IC50 [1]	PI3Kγ IH % @ 1 uM [2]	IC50 [2]	PI3Kβ IH % @ 1 uM [3]	IC50 [3]
CC(=O)c1n[nH]c2ncnc(N3CCC[C@H]3c3nn4ccc(Cl)c4c(=O)n3-c3ccccc3)c12 [Compound 297]	96.0%	6 nM	92.7%	15 nM	61.5%	
CC(=O)c1n[nH]c2ncnc(N3CC[C@H]3c3nn4ccc(Cl)c4c(=O)n3-c3ccccc3)c12 [Compound 298]	61.9%		70.2%	158 nM	17.8%	
CC(=O)c1c(N)ncnc1N1CC[C@H]1c1nn2ccc(Cl)c2c(=O)n1-c1ccccc1 [Compound 300]	99.1%	29 nM	82.7%	148 nM	51.5%	
CC(=O)c1cnc(N)nc1N1CC[C@H]1c1nn2ccc(Cl)c2c(=O)n1-c1ccc(F)cc1 [Compound 302]	96.5%	77 nM	98.6%	8 nM	57.8%	
O=c1c2c(Cl)ccn2nc([C@@H]2CCCN2c2ncnc3[nH]cc(C4=NCCO4)c23)n1-c1ccccc1 [Compound 303, (S)-5-chloro-2-(1-(5-(4,5-dihydrooxazol-2-yl)-7H-pyrrolo[2,3-d]pyrimidin-4-yl)pyrrolidin-2-yl)-3-phenylpyrrolo[2,1-f][1,2,4]triazin-4(3H)-one]	97.2%	1 nM	94.6%	1 nM	92.7%	21 nM
O=C(NCCO)c1c[nH]c2ncnc(N3CC[C@H]3c3nn4ccc(Cl)c4c(=O)n3-c3ccccc3)c12 [Compound 304]	98.2%	42 nM	93.6%		47.4%	
O=c1c2c(Cl)ccn2nc([C@@H]2CCN2c2ncnc3[nH]cc(C4=NCCO4)c23)n1-c1ccccc1 [Compound 305]	>100%	21 nM	97.6%	7 nM	91.6%	125 nM
C/C(=N\O)c1c[nH]c2ncnc(N3CCC[C@H]3c3nn4ccc(Cl)c4c(=O)n3-c3ccccc3)c12 [Compound 306, (S)-5-chloro-2-(1-(5-(1-(hydroxyimino)ethyl)-7H-pyrrolo[2,3-d]pyrimidin-4-yl)pyrrolidin-2-yl)-3-phenylpyrrolo[2,1-f][1,2,4]triazin-4(3H)-one]	>100%	11 nM	>100%	29 nM	92.8%	16 nM
CC(=O)Nc1c[nH]c2ncnc(N3CCC[C@H]3c3nn4ccc(Cl)c4c(=O)n3-c3ccccc3)c12 [Compound 307, (S)—N-(4-(2-(5-chloro-4-oxo-3-phenyl-3,4-dihydropyrrolo[2,1-f][1,2,4]triazin-2-yl)pyrrolidin-1-yl)-7H-pyrrolo[2,3-d]pyrimidin-5-yl)acetamide]	98.9%	5 nM	95.9%	32 nM	80.7%	213 nM
N#Cc1c[nH]c2ncnc(N3CC[C@H]3c3nn4ccc(Cl)c4c(=O)n3-c3ccccn3)c12 [Compound 309, (S)-4-(2-(5-chloro-4-oxo-3-(pyridin-2-yl)-3,4-dihydropyrrolo[2,1-f][1,2,4]triazin-2-yl)azetidin-1-yl)-7H-pyrrolo[2,3-d]pyrimidine-5-carbonitrile]	>100%	11 nM	94.6%	99 nM	35.5%	
CC(=O)c1c[nH]c2ncnc(N3CC[C@H]3c3nn4ccc(Cl)c4c(=O)n3-c3ccccn3)c12 [Compound 312]	97.1%	23 nM	93.7%	67 nM	20.0%	
O=c1c2c(F)ccn2nc([C@@H]2CCCN2c2ncnc3[nH]cnc23)n1-c1ccccn1 [Compound 313]	100.0%	3 nM	77.2%	423 nM	52.6%	
Nc1nc(N2CC[C@H]2c2nn3ccc(Cl)c3c(=O)n2-c2ccccc2)n2ncc(Cl)c2n1 [Compound 314, (S)-2-(1-(2-amino-8-chloropyrazolo[1,5-a][1,3,5]triazin-4-yl)azetidin-2-yl)-5-chloro-3-phenylpyrrolo[2,1-f][1,2,4]triazin-4(3H)-one]	17.2%		54.1%		16.8%	
N#Cc1cc2nc(N)nc(N3CCC[C@H]3c3nn4ccc(Cl)c4c(=O)n3-c3ccccc3)n2n1 [Compound 320]	29.1%		55.9%		5.5%	
CC(=O)c1cnc(N)nc1N1CCCC1c1cn2ccc(Cl)c2c(=O)n1-c1ccccc1 (stereo not shown) [Compound 321]	100.0%	5 nM	>100%	11 nM	80.5%	218 nM
Cc1nc(N)nc(N2CC[C@H]2c2nn3ccc(F)c3c(=O)n2-c2ccccc2)c1C#N [Compound 322]	99.5%	5 nM	>100%	27 nM	58.0%	
CC(=O)c1cnc(N)nc1N1CC[C@H]1c1nn2ccc(F)c2c(=O)n1-c1ccccc1 [Compound 323]	99.4%	12 nM	>100%	21 nM	6.1%	
CC(=O)c1cnc(N)nc1N1C[C@H](C)[C@H]1c1nn2ccc(F)c2c(=O)n1-c1ccccc1 [Compound 324]	98.8%	1 nM	>100%	5 nM	67.1%	456 nM
Nc1ncc(C(=O)C2CC2)c(N2CC[C@H]2c2nn3ccc(Cl)c3c(=O)n2-c2ccccc2)n1 [Compound 326]	7.1%		50.7%		−23.5%	
Nc1nc2c(c(N3CCCC3c3cn4ccc(Cl)c4c(=O)n3-c3ccccc3)n1)C(=O)CCN2 (stereo not shown) [Compound 327]	99.5%	2 nM	97.2%	1 nM	73.4%	250 nM
Nc1nc(N2CCC[C@H]2c2nn3ccc(Cl)c3c(=O)n2-c2ccccc2)c2cccn2n1 [Compound 331]	71.9%	121 nM	>100%	147 nM	20.9%	
Nc1nc(N2CC[C@H]2c2nn3ccc(Cl)c3c(=O)n2-c2ccccc2)c2ncccc2n1 [Compound 334]	25.7%		82.1%	68 nM	11.2%	
Nc1nc(N2CCC[C@H]2c2nn3ccc(Cl)c3c(=O)n2-c2ccccc2)c2ncccc2n1 [Compound 335]	48.4%		69.5%		17.0%	
N#Cc1c[nH]c2ncnc(N3CCC[C@H]3c3nn4ccc(Cl)c4c(=O)n3-c3ccccn3)c12 [Compound 337, (S)-4-(2-(5-chloro-4-oxo-3-(pyridin-2-yl)-3,4-dihydropyrrolo[2,1-f][1,2,4]triazin-2-yl)pyrrolidin-1-yl)-7H-pyrrolo[2,3-d]pyrimidine-5-carbonitrile]	99.2%	1 nM	>100%	5 nM	93.2%	21 nM
CC(=O)c1c[nH]c2ncnc(N3CCC[C@H]3c3nn4ccc(Cl)c4c(=O)n3-c3ccccn3)c12 [Compound 340]	100.0%	1 nM	94.3%	9 nM	76.1%	163 nM
Cc1cccc(-n2c([C@@H]3CCCN3c3ncnc4[nH]cnc34)nn3ccc(Cl)c3c2=O)n1 [Compound 342]	92.1%	38 nM	77.1%	272 nM	45.2%	
O=c1c2c(Cl)ccn2nc([C@@H]2CCCN2c2ncnc3[nH]cnc23)n1-c1ccncn1 [Compound 344]	94.8%	85 nM	85.5%	81 nM	57.3%	
N#Cc1c[nH]c2ncnc(N3C[C@@H](F)C[C@H]3c3nn4ccc(Cl)c4c(=O)n3-c3ccccn3)c12 [Compound 345]	>100%	1 nM	97.1%	4 nM	93.2%	28 nM
N#Cc1c[nH]c2ncnc(N3C[C@@H](F)C[C@H]3c3nn4ccc(F)c4c(=O)n3-c3ccccn3)c12 [Compound 346]	>100%	2 nM	94.1%	26 nM	86.1%	47 nM
N#C[C@H]1C[C@@H](c2nn3ccc(Cl)c3c(=O)n2-c2cccc(F)c2)N(c2ncnc3[nH]cnc23)C1 [Compound 347, (3S,5S)-5-(5-chloro-3-(3-fluorophenyl)-4-oxo-3,4-dihydropyrrolo[2,1-f][1,2,4]triazin-2-yl)-1-(9H-purin-6-yl)pyrrolidine-3-carbonitrile]	98.3%	2 nM	91.8%	13 nM	87.8%	70 nM

Reference: US20150307520A1, “NOVEL HETEROARYL AND HETEROCYCLE COMPOUNDS, COMPOSITIONS AND METHODS THEREOF” (HUTCHISON MEDIPHARMA LIMITED, priority 2012, published 2015)
